Laboratory results: US5102907A, “Novel squalene synthetase inhibitors” (Merck & Co., Inc., priority 1990, dated 1992)
≈ marks a conversion by molar mass, not a printed value.

What was measured:
Assay in all cases: antifungal (yeast) sensitivity, inhibitor dilution assay in microtiter format
Conditions in all cases: YNB/G, lowest concentration to prevent growth, 24 to 48 hours, 35° C., read-out: Minimum Inhibitory Concentration
C. tropicalis MY1012 = type: cell-based, Candida tropicalis
Procedure: (§1) The compounds are particularly active towards filamentous fungi and yeasts including Candida albicans and Cryptococcus neoformans. The sensitivity of filamentous fungi and yeast was determined using inhibitor dilution assays in microtiter format. The compounds were dissolved in DMSO at 2 mg/ml and serially diluted in 0.1M phosphate buffer, pH 7.0 in the microtiter dish from 100 to 0.006 μg/ml. A standardized spore suspension for testing the filamentous fungi was prepared by inoculating Antibiotic Medium #3 containing 1.5% agar with spores such that 1.5×10^3 colony forming units were added per well. The microtiter wells were filled with 50 μl of buffer containing compound and 50 μl of inoculated medium.
(§2) The sensitivity of yeasts was determined by inoculating yeast nitrogen base containing 1% dextrose (YNB/G) with aliquots of an overnight yeast culture grown in Yeast Morphology (YM) media at 35° C. and diluting in YNB/G to yield a final concentration of 1.5-7.5×10^3 colony forming units/well. To test the sensitivity of yeast, compound was solubilized in 10 percent aqueous DMSO at 2.56 mg/ml. The compound was diluted serially in YNB/G from 128 to 0.06 μg/ml and further diluted 1:10 in YNB/G. The wells were filled with 150 μl of media containing drug. […]

Crypt. neoformans MY1051 = type: cell-based, Cryptococcus neoformans
Procedure: as §1, §2

C. parapsilosis MY1010 = type: cell-based, Candida parapsilosis
Procedure: as §1, §2

MIC (C. tropicalis MY1012): 8 µg/mL (≈ 10.6 µM)
MIC (Crypt. neoformans MY1051): 1 µg/mL (≈ 1.32 µM)
MIC (C. parapsilosis MY1010): 8 µg/mL (≈ 10.6 µM)
SMILES: CC(=O)OC(CCCC12OC(C(=O)O)C(O)(C(=O)O)C(C(=O)O)(O1)C(OC(=O)CCC=CC(C)CCCc1ccccc1)C2O)C(C)Cc1ccccc1 (stereo not drawn) [Compound A]
